According to patent US8168596B2, “Use of cycloartane compounds for treating arthritis” (NuLiv Holding Inc., priority 2008, dated 2012):

Experiments:
MMP-1 [1] = assay: Zymography of MMP-1 from pre-treated SW1353 cells; format: cell-based, human; conditions: 0.1 μM, 24 h
Procedure: (§1) At the beginning of the experiment, the cells were pre-treated with 100 ng/mL PMA or 10 ng/mL IL-1β for 24 hours. The cells were then treated with 0.1 μM Dexamethasone, various astragaloside compounds (0.1 μM) or extracts of Astragalus membranaceous (1 μg/mL) at indicated dosages for another 24 hours. For control sample, 0.1% DMSO was used as a negative control for these experiments. The conditioned culture mediums were then centrifuged, 2-fold concentrated and collected for assay of collagens or MMPs secreted into the culture medium.
(§2) The proteolytic activities of MMPs from SW1353 cells were measured essentially as described previously (Circ Res, 1999; 85:906-911). The cells were lysed in lysis buffer (1% Triton X-100, 50 mM Tris-Cl, pH 7.4, 180 mM NaCl, 1 mM EDTA). The samples were measured for their protein concentration using the bicinchoninic acid (BCA) protein assay kit as described. Samples of concentrated conditioned medium and cell lysates were mixed with non-reducing electrophoresis loading buffer and subjected to electrophoresis under non-reducing conditions. The electrophoresis was carried out on a 10% SDS-PAGE co-polymerized with 2 mg/mL gelatin or casein (Sigma, St. Louis, Mo. USA). For zymographic analysis of pro-MMP-2 and activated MMP-2, the total 20 μg of culture medium were used for electrophoresis. Following electrophoresis, renaturation of the proteins was achieved by incubating the gels twice in 25 g/L Triton X-100 at room temperature for 10 min. Subsequently the gels were incubated in 50 mM Tris-HCl, pH 7.5 containing 0.2 M NaCl, 0.02% Brij35 and 10 mM CaCl2 at 37° C. for 18 hours. After the gels were stained with Coomassie Brilliant Blue R-250 and destained, zones of proteolytic activities became visible as transparent bands in the stained gel. In order to obtain higher sensitivity, the gels were further destained in a solution of 1% Triton X-100 (1 to 2 hours). This procedure increased the signal-to-noise ratio, allowing the visualization of faint gelatinase bands at 92 kDa, 125 kDa and greater than 200 kDa. Zymograms were read using a Molecular Dynamics (Sunnyvale, Calif., USA) computing laser densitometer with Image Quant software.

MMP-13 [2] = assay: Western blot of MMP-13 in PMA- or IL-1β-pre-treated SW1353 cells (Example 6); format: cell-based, human; conditions: 0.1 μM, 48 h
Procedure: (§3) The cells were then plated on 6-cm dishes at a density of 1×10^6 cells/dish for 24 hours prior to any treatment. At the beginning of the experiment, the cells were pre-treated with 100 ng/mL PMA or 10 ng/mL IL-1β for 24 hours. The cells were then treated 0.1 μM Dexamethasone with, various astragaloside compounds (0.1 μM) or extracts of Astragalus membranaceous (1 μg/mL) at indicated dosages for another 48 hours. For control sample, 0.1% DMSO was used as a negative control for these experiments. The conditioned culture mediums were then centrifuged, 2-fold concentrated and collected for assay of collagens or MMPs secreted into the culture medium.
Western blotting analysis was carried out on both cultured medium and cell lysates, as follows. The cells were washed and lysed in 0.2 mL of lysis buffer (1% NP-40, 50 mM Tris-HCl, pH 7.4, 180 mM NaCl, 1 mM EDTA, 1 mM PMSF, 1 mM NaF, 10 mM Na3VO4) for 30 min at 4° C. After centrifuging at 17500 g for 15 min, the supernatants of cell lysate were also collected. Protein concentration of the samples were measured using the bicinchoninic acid (BCA) protein assay kit according to the manufacturer's protocol (Pierce, Rockford, Ill., USA). Equal amount of protein samples of concentrated conditioned medium (100 μg) or cell lysate supernatants (50 μg) were mixed with an appropriate volume of 4×SDS sampling buffer and separated by 8% SDS-PAGE gel. The protein bands separated in the SDS-PAGE gel were blotted onto a polyvinylidene fluoride (PVDF) membrane. The blotted PVDF membrane was washed twice and blocked in freshly prepared Tris-buffered saline (TBS) containing 0.1% Tween-20 and 7% skim milk (TBST) for 2 hours at room temperature. […] Horseradish peroxidase-conjugated anti-goat antibody was used as secondary antibody. Signals were visualized by an enhanced chemiluminescence kit (Clonetech, Palo Alto, Calif., USA) followed by exposure to X-ray films.

MMP-1 [3] = assay: Western blot of MMP-1 in PMA- or IL-1β-pre-treated SW1353 cells (Example 6); format: cell-based, human; conditions: 48 h
Procedure: as §3
Western blotting analysis was carried out on both cultured medium and cell lysates, as follows. The cells were washed and lysed in 0.2 mL of lysis buffer (1% NP-40, 50 mM Tris-HCl, pH 7.4, 180 mM NaCl, 1 mM EDTA, 1 mM PMSF, 1 mM NaF, 10 mM Na3VO4) for 30 min at 4° C. After centrifuging at 17500 g for 15 min, the supernatants of cell lysate were also collected. Protein concentration of the samples were measured using the bicinchoninic acid (BCA) protein assay kit according to the manufacturer's protocol (Pierce, Rockford, Ill., USA). Equal amount of protein samples of concentrated conditioned medium (100 μg) or cell lysate supernatants (50 μg) were mixed with an appropriate volume of 4×SDS sampling buffer and separated by 8% SDS-PAGE gel. The protein bands separated in the SDS-PAGE gel were blotted onto a polyvinylidene fluoride (PVDF) membrane. The blotted PVDF membrane was washed twice and blocked in freshly prepared Tris-buffered saline (TBS) containing 0.1% Tween-20 and 7% skim milk (TBST) for 2 hours at room temperature. The PVDF membrane was then incubated with either antibodies against collagen I and III or the housekeeping protein α-tubulin (Santa Cruz Biotechnology, Santa Cruz, Calif.) for 18 hours at 4° C. Horseradish peroxidase-conjugated anti-goat antibody was used as secondary antibody. Signals were visualized by an enhanced chemiluminescence kit (Clonetech, Palo Alto, Calif., USA) followed by exposure to X-ray films.

MMP-9 = assay: Zymography of MMP-9 from pre-treated SW1353 cells; format: cell-based, human; conditions: 24 h
Procedure: as §1, §2

MMP-2 = assay: Zymography of MMP-2 from pre-treated SW1353 cells; format: cell-based, human; conditions: 24 h
Procedure: as §1, §2

MMP-13 [4] = assay: Western blot of MMP-13 in pre-treated human chondrocytes (HCHs); format: cell-based; conditions: 48 h
Type II Collagen = assay: Western blot of Type II Collagen in pre-treated human chondrocytes (HCHs); format: cell-based; conditions: 48 h
HCH cells = assay: Proline uptake assay; format: cell-based, human; conditions: astragalosides 0.1 μM, 24 h, Ctrl 1.00
Procedure: The proline uptake assay was carried out as described below, generally in accordance with the method disclosed in Biochim Biophys Acta. 1104:283-292, 1992, the contents of which are incorporated by reference. Briefly, HCH cells were seeded into a 24-well plate at a density of 3×10^4 cells per well and cultured for 24 hours. The cells were then treated in the absence (solvent control) or presence of the astragalosides (0.1 μM) or Astragalus membranaceous extracts (1.0 μg/mL) for another 24 hours. The treated cells were then washed once with PBS and incubated in amino acid free medium (AAFM) for another 30 min. The treated cells were then replaced with fresh AAFM containing 50 μg/mL of ascorbate and total of 0.5 mM of L-proline containing 1 μCi [^3H] Proline (American Radiolabelled Chemicals Inc, ARC, St. Louis, Mo., USA). At designated time intervals, the cells were washed with AAFM containing cold proline and then lysed in 200 μL of 2% SDS. Cell lysates were centrifuged at 15000 g for 15 min. Intracellular proline uptaken by the cells was determined by transferring 10 μL of the cell lysate to filter-bottomed UniFilter plates (Perkim-Elmer) and counting. The samples were measured for their protein concentrations using the BCA protein assay kit as described above. The amount of proline accumulated in the cells was calculated and normalized to protein concentration. And cellular uptake rate was expressed as nmole of L-proline per minute per […] of cell protein (nmole/min/μg).

MMP-1 [5] = assay: Western blot of MMP-1 in pre-treated human chondrocytes (HCHs); format: cell-based; conditions: 48 h
[6] = IL-1β-pre-treated SW1353 cell extract
[7] = IL-1β-pre-treated SW1353 culture medium
[8] = IL-1β-pre-treated SW1353 cell extract, compounds 0.1 μM
[9] = PMA-pre-treated SW1353 cell extract, 0.1 μM
[10] = IL-1β-pre-treated SW1353, compounds 0.1 μM
[11] = IL-1β-pre-treated HCH culture medium, compounds 0.1 μM
[12] = IL-1β-pre-treated SW1353 culture medium, 0.1 μM
[13] = PMA-pre-treated HCH culture medium, 0.1 μM
[14] = PMA-pre-treated SW1353 culture medium
[15] = PMA-pre-treated SW1353 culture medium, 0.1 μM

Row | Molecule | MMP-1, Zymography, relative to Ctrl 1.00 (MMP-1 [1]; IL-1β-pre-treated SW1353) | MMP-13, Western blot, relative to Ctrl 1.00 (MMP-13 [2]; [6]) | MMP-13, Western blot, relative to Ctrl 1.00 (MMP-13 [2]; [7]) | MMP-1, Western blot, relative to Ctrl 1.00 (MMP-1 [3]; [8]) | MMP-1, Western blot, relative to Ctrl 1.00 (MMP-1 [3]; [9]) | MMP-9, Zymography, relative to Ctrl 1.00 (MMP-9; [10]) | MMP-2, Zymography, relative to Ctrl 1.00 (MMP-2; [10]) | MMP-1, Zymography, relative to Ctrl 1.00 (MMP-1 [1]; PMA-pre-treated SW1353) | MMP-13, Western blot, relative to Ctrl 1.00 (MMP-13 [4]; [11]) | MMP-1, Western blot, relative to Ctrl 1.00 (MMP-1 [3]; [12]) | Type II Collagen, Western blot, relative to Ctrl 1.00 (Type II Collagen; [11]) | MMP-9, Zymography, relative to Ctrl 1.00 (MMP-9; PMA-pre-treated SW1353, 0.1 μM) | MMP-2, Zymography, relative to Ctrl 1.00 (MMP-2; PMA-pre-treated SW1353, 0.1 μM) | MMP-13, Western blot, relative to Ctrl 1.00 (MMP-13 [4]; [13]) | MMP-13, Western blot, relative to Ctrl 1.00 (MMP-13 [2]; [14]) | MMP-1, Western blot, relative to Ctrl 1.00 (MMP-1 [5]; [11]) | MMP-1, Western blot, relative to Ctrl 1.00 (MMP-1 [5]; [13]) | MMP-1, Western blot, relative to Ctrl 1.00 (MMP-1 [3]; [15]) | Type II Collagen, Western blot, relative to Ctrl 1.00 (Type II Collagen; [13]) | also measured
1 | CC(=O)O[C@H]1[C@H](O[C@H]2CC[C@]34C[C@]35CC[C@]3(C)[C@@H]([C@@]6(C)CC[C@@H](C(C)(C)O)O6)[C@@H](O)C[C@@]3(C)[C@@H]5C[C@H](O[C@@H]3O[C@H](CO)[C@@H](O)[C@H](O)[C@H]3O)[C@H]4C2(C)C)OC[C@@H](O)[C@@H]1O [AS2, Astragaloside II] | 0.77 | 0.49 | 0.45 | 0.86 | 0.71 | 0.79 | 0.79 |  |  |  |  |  |  |  |  |  |  |  |  | 
2 | CC(C)(O)[C@@H]1CC[C@](C)([C@H]2[C@@H](O)C[C@@]3(C)[C@@H]4C[C@H](O)[C@H]5C(C)(C)[C@@H](O[C@@H]6OC[C@@H](O)[C@H](O)[C@H]6O[C@@H]6O[C@H](CO)[C@@H](O)[C@H](O)[C@H]6O)CC[C@@]56C[C@@]46CC[C@]23C)O1 [AS3, Astragaloside III] |  | 0.86 |  | 0.39 |  |  |  | 0.89 | 0.75 | 0.09 | 1.03 | 0.87 | 0.90 |  |  |  |  |  |  | 
3 | CC(C)(O)[C@@H]1CC[C@](C)([C@H]2[C@@H](O)C[C@@]3(C)[C@@H]4C[C@H](O[C@@H]5O[C@H](CO)[C@@H](O)[C@H](O)[C@H]5O)[C@H]5C(C)(C)[C@@H](O[C@@H]6OC[C@@H](O)[C@H](O)[C@H]6O[C@@H]6O[C@H](CO)[C@@H](O)[C@H](O)[C@H]6O)CC[C@@]56C[C@@]46CC[C@]23C)O1 [AS6, Astragaloside VI] |  |  |  | 0.63 |  |  |  |  |  |  | 1.34 |  |  | 0.26 | 0.93 | 0.97 | 0.51 | 0.40 | 1.74 | proline uptake, Relative fold (HCH cells): 1.69 fold; MMP-13, Western blot, relative to Ctrl 1.00 (MMP-13 [4]; PMA-pre-treated HCH cell extract, 0.1 μM): 0.54
4 | C[C@@H]1C[C@H]2[C@@H]3CCC4=CC(=O)C=C[C@]4(C)[C@@]3(F)[C@@H](O)C[C@]2(C)[C@@]1(O)C(=O)CO [Dex, Dexamethasone, reference compound] | 0.80 | 0.64 | 0.29 | 0.26 | 0.38 | 0.58 | 0.42 | 0.87 | 0.74 | 0.38 | 1.20 | 0.92 | 0.99 | 0.74 | 0.46 | 0.28 | 0.28 | 0.60 | 1.20 | MMP-13, Western blot, relative to Ctrl 1.00 (MMP-13 [2]; PMA-pre-treated SW1353 cell extract): 0.48
5 | Astragaloside I [AS1] | 0.86 | 0.37 |  | 0.66 | 0.86 | 0.79 | 0.76 | 0.85 |  |  |  | 1.23 | 0.87 |  | 1.15 |  |  | 0.48 |  | 
